Measured values as given in the supplement of paper PMC10307832.

Key:
Assay in all cases: relative viability (nuclei count vs DMSO), 5 days (fraction); higher = more cells survive
[1] = compound: C1CC(C1)(C(=O)O)C(=O)O.[NH2-].[NH2-].[Pt+2] [Carboplatin] + CCNC(=O)c1noc(-c2cc(C(C)C)c(O)cc2O)c1-c1ccc(CN2CCOCC2)cc1 [Luminespib] (partner 0.01 µM)
How it was run: (§1)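 Lung cancer cell lines, seeded in 1536-well plates, were treated the following day by pin tool with a single drug or with five library-drug doses (not always all listed) in √10 steps on top of a fixed anchor-drug dose. Cells were fixed and nuclei stained in one step after 5 days, and nuclei were counted. Relative viability is the nuclei count for treated wells divided by that for vehicle wells, reported as medians of duplicate plates.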

[2] = compound: CC[C@H](C)N1C=C(C2=C(C=C(C=C21)C3=CN=C(C=C3)N4CCNCC4)C(=O)NCC5=C(C=C(NC5=O)C)C)C [GSK126] + NC(=O)Nc1cc(-c2cccc(F)c2)sc1C(=O)N[C@H]1CCCNC1 [AZD7762] (partner 0.2 µM)
How it was run: as §1

[3] = compound: CC[C@H](C)N1C=C(C2=C(C=C(C=C21)C3=CN=C(C=C3)N4CCNCC4)C(=O)NCC5=C(C=C(NC5=O)C)C)C [GSK126] + N=C(N)NC(=N)NCCc1ccccc1 [Phenformin] (partner 250 µM)
How it was run: as §1

[4] = compound: CC[C@H](C)N1C=C(C2=C(C=C(C=C21)C3=CN=C(C=C3)N4CCNCC4)C(=O)NCC5=C(C=C(NC5=O)C)C)C [GSK126] + Cc1cc(Nc2cc(N3CCN(C)CC3)nc(Sc3ccc(NC(=O)C4CC4)cc3)n2)n[nH]1 [Tozasertib] (partner 0.1 µM)
How it was run: as §1

| Cell Line | relative viability ([1]; first compound 0.08 µM) | relative viability ([1]; first compound 0.253 µM) | relative viability ([1]; first compound 0.8 µM) | relative viability ([1]; first compound 2.53 µM) | relative viability ([1]; first compound 8 µM) | relative viability ([2]; first compound 0.08 µM) | relative viability ([2]; first compound 0.253 µM) | relative viability ([2]; first compound 0.8 µM) | relative viability ([2]; first compound 2.53 µM) | relative viability ([2]; first compound 8 µM) | relative viability ([3]; first compound 0.08 µM) | relative viability ([3]; first compound 0.253 µM) | relative viability ([3]; first compound 0.8 µM) | relative viability ([3]; first compound 2.53 µM) | relative viability ([3]; first compound 8 µM) | relative viability ([4]; first compound 0.08 µM) | relative viability ([4]; first compound 0.253 µM) | relative viability ([4]; first compound 0.8 µM) | relative viability ([4]; first compound 2.53 µM) | relative viability ([4]; first compound 8 µM) |
| --- | --- | --- | --- | --- | --- | --- | --- | --- | --- | --- | --- | --- | --- | --- | --- | --- | --- | --- | --- | --- |
| NCI-H1437 | 1.14 | 1.14 | 0.994 | 1.03 | 0.97 | 1.19 | 1.06 | 1.05 | 1.1 | 0.966 | 0.298 | 0.362 | 0.269 | 0.319 | 0.311 | 0.42 | 0.433 | 0.4 | 0.35 | 0.388 |
| NCI-H1651 | 0.829 | 0.782 | 0.627 | 0.424 | 0.229 | 0.534 | 0.416 | 0.467 | 0.537 | 0.364 | 0.369 | 0.268 | 0.354 | 0.313 | 0.364 | 0.717 | 0.728 | 0.864 | 0.57 | 0.537 |
| NCI-H1666 | 1.02 | 1.02 | 0.814 | 0.824 | 0.702 | 0.861 | 0.8 | 0.82 | 0.936 | 0.813 | 0.586 | 0.595 | 0.598 | 0.522 | 0.569 | 0.667 | 0.624 | 0.557 | 0.52 | 0.49 |
| NCI-H1734 | 0.21 | 0.236 | 0.193 | 0.188 | 0.174 | 0.597 | 0.497 | 0.526 | 0.576 | 0.531 | 0.474 | 0.361 | 0.393 | 0.382 | 0.418 | 0.322 | 0.235 | 0.295 | 0.224 | 0.283 |
| NCI-H1755 | 0.419 | 0.7 | 0.41 | 0.595 | 0.366 | 0.468 | 0.446 | 0.395 | 0.461 | 0.412 | 0.656 | 0.637 | 0.614 | 0.562 | 0.555 | 0.577 | 0.64 | 0.53 | 0.552 | 0.508 |
| NCI-H1793 | 0.153 | 0.172 | 0.187 | 0.185 | 0.17 | 0.646 | 0.394 | 0.299 | 0.592 | 0.292 | 0.407 | 0.458 | 0.384 | 0.274 | 0.235 | 0.324 | 0.331 | 0.422 | 0.475 | 0.363 |
| NCI-H1915 | 0.867 | 0.876 | 0.631 | 0.613 | 0.328 | 0.762 | 0.739 | 0.663 | 0.755 | 0.676 | 0.412 | 0.374 | 0.404 | 0.359 | 0.371 | 0.486 | 0.436 | 0.447 | 0.438 | 0.415 |
| NCI-H1944 | 0.881 | 0.661 | 0.661 | 0.452 | 0.389 | 0.476 | 0.46 | 0.441 | 0.547 | 0.461 | 0.194 | 0.196 | 0.183 | 0.168 | 0.178 | 0.261 | 0.24 | 0.247 | 0.23 | 0.28 |
